The source of these data is patent US12545669B2, “Cycloalkyl and heterocycloalkyl benzisoxazole sulfonamide derivatives” (Pfizer Inc., priority 2019, dated 2026).

For this assay, the target named is KAT6A (Homo sapiens (Human), UniProt Q92794). Put plainly: KAT assay protocol (SAMDI mass spectrometry), KAT6A. The note with it: for inhibition at 1 µM: 1 μM compound; for Ki: 10 μM AcCoA, Morrison equation; for IC50: 1 μM AcCoA. Type of assay: biochemical. The method, then: Biological Assay Section 1 KAT Assay Protocol:
A. Compound Preparation • 1. Prepare 10 mM stock solutions in 100% DMSO from solid material • 2. Serial dilute 10 mM, 1 mM or 0.1 mM compound stocks 3-fold in 100% DMSO for 11-point dose response
B. Reagent Preparation • 1. Prepare 1× assay buffer containing 10 mM Tris HCL pH 8.0, 2.5 mM NaCl, 0.5 mM EDTA, 0.005% BSG and 0.02% Tween-20 • 2. Dilute Histone peptide (CPC Scientific) and AcCoA (Sigma) together in assay buffer to 2×. • 3. Dilute KAT enzyme in assay buffer to 2×.
C. Enzyme Reaction • 1. Final reaction conditions for each KAT assay in a 20 ul assay reaction volume: • i. […] Add 0.5 ul of diluted compound to the assay plate (384-well V-bottom polypropylene plates) or 0.5 ul of DMSO for control wells. • 3. Add 10 ul of 2× Histone peptide/2× AcCoA mix to the assay plate. • 4. Add 10 ul of 2× enzyme to the assay plate. • 5. Stop the reaction after the indicated time with the addition of 2 ul of 5% formic acid • 6. Each reaction was analyzed using self-assembled monolayer desorption/ionization time-of-flight mass spectrometry (Mrksich, Milan (2008) Mass Spectrometry of Self-Assembled Monolayers: A New Tool for Molecular Surface Science ACS Nano 2008 2 (1), 7-18; SAMDI Tech, Inc. (Chicago, IL)). • 7. Area under the curve (AUC) for both substrate and product peaks was determined for KAT6A at M.W. 2723 [Substrate+H]^+ and 2765 [Product+H]^+ with a +/−1 Da tolerance, respectively. • 8. Percent conversion to product was calculated by: AUCProduct/(AUCSubstrate+AUCProduct).
D. Data Analysis • 1. IC50 values were determined by fitting the % conversion at each inhibitor concentration to the 4-parameter IC50 equation using Pfizer proprietary curve fitting software. • 2. Ki values were determined by fitting the % conversion at each inhibitor concentration to the Morrison equation for tightbinding competitive inhibitors using Pfizer proprietary curve fitting software. Materials
KAT enzymes were expressed using a baculovirus expression system and purified at Pfizer, La Jolla. Histone H3 (1-21) peptide ([…], SEQ ID NO:3) was purchased from CPC Scientific (Sunnyvale, CA). Acetyl coenzyme A was purchased from Sigma-Aldrich (St. Louis, MO). All other biochemical reagents were purchased from Sigma-Aldrich or ThermoFisher Scientific (Waltham, MA).
[…] 10 ul of 2× Histone peptide/AcCoA mix was added to a 384-well V-bottom polypropylene assay plate containing 0.5 ul of serially diluted test compound in 100% dimethyl sulfoxide (DMSO). To start the reaction, 10 ul of 2× enzyme solution was added to the assay plate. KAT assays were terminated after 30-60 minutes with the addition of 2 ul of 5% formic acid. KAT6A used histone H3 (1-21) peptide. The final enzyme concentration for KAT6A was 15 nM. Each reaction was analyzed using self-assembled monolayer desorption/ionization time-of-flight mass spectrometry (Mrksich, Milan (2008) Mass Spectrometry of Self-Assembled Monolayers: A New Tool for Molecular Surface Science ACS Nano 2008 2 (1), 7-18; SAMDI Tech, Inc. (Chicago, IL)).
Area under the curve (AUC) for both substrate and product peaks was determined for KAT6A at M.W. 2723 [Substrate+H]^+ and 2765 [Product+H]^+ with a +/−1 Da tolerance, respectively. Percent conversion to product was calculated by: AUCProduct/(AUCSubstrate+AUCProduct). IC50 values were determined by fitting the % conversion at each inhibitor concentration to the 4-parameter IC50 equation using Pfizer proprietary curve fitting software. Ki values were determined by fitting the % conversion at each inhibitor concentration to the Morrison equation for tightbinding competitive inhibitors using Pfizer proprietary curve fitting software.

The mark [1] stands for this setting: read-out: KAT6A Ki at 10 μM AcCoA.

Where two headings read alike, the source gives them in different places.

Sequence of KAT6A (Q92794 whole entry): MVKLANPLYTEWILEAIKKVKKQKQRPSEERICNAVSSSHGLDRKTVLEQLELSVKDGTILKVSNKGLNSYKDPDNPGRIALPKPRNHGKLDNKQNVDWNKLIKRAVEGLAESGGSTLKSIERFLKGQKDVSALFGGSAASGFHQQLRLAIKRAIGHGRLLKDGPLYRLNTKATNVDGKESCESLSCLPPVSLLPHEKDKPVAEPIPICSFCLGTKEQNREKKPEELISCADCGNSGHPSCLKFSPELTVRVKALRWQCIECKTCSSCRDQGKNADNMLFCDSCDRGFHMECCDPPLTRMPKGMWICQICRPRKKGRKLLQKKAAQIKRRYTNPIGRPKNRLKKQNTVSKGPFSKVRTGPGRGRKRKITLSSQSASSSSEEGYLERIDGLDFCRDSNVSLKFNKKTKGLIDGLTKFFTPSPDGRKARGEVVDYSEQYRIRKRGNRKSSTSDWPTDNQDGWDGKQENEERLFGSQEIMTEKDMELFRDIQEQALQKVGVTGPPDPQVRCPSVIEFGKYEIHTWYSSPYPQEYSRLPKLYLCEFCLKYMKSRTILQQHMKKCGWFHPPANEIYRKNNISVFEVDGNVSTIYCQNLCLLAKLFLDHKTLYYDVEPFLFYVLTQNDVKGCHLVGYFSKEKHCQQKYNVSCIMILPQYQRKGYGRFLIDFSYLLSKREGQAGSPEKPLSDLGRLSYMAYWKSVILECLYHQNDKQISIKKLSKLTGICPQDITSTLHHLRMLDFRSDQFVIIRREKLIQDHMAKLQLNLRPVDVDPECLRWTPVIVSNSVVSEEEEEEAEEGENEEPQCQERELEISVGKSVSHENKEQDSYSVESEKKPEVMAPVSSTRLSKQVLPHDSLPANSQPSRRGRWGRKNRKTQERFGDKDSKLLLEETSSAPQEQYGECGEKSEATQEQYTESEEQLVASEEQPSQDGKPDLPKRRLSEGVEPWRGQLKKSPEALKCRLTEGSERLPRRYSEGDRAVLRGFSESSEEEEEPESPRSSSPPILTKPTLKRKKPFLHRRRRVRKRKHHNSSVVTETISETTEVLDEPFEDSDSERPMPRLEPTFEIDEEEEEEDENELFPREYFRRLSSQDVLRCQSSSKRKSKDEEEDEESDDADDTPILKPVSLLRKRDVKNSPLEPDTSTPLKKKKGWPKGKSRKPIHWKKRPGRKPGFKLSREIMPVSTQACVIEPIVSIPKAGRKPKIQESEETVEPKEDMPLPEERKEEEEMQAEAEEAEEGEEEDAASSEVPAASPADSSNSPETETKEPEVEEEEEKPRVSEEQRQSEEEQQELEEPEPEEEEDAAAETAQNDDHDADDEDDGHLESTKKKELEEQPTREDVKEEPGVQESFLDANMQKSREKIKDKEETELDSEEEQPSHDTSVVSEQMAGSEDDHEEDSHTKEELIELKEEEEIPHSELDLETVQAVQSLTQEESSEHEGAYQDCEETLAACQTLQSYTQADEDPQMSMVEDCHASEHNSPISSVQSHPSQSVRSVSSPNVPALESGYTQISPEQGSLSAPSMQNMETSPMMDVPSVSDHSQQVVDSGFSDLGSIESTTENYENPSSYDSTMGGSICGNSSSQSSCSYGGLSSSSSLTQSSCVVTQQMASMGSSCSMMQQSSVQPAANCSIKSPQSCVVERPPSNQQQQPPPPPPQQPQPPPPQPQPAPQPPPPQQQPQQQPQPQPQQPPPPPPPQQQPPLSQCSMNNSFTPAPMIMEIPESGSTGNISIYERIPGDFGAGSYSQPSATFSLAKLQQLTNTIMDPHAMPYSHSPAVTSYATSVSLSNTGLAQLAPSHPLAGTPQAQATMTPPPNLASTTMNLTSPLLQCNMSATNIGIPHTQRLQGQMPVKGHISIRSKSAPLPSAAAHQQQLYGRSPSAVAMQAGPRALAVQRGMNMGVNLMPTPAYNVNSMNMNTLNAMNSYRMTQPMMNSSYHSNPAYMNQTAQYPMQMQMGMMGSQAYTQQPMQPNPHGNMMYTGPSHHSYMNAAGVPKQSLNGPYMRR

As usually defined, the inhibition is the drop in the measured response relative to a control, in per cent. Turning to `COc1cc(Cn2cccn2)cc2onc(NS(=O)(=O)CC3CCC(C)O3)c12` (stereo not shown) [Example 100], the inhibition at 1 µM amounted to 69%.

As a reminder, the Ki is the equilibrium dissociation constant of an inhibitor or competing ligand from its target. Consider `COc1cc(Cn2cccn2)cc2onc(NS(=O)(=O)CC3(OC)CCCCC3)c12` [Example 52], for which the inhibition at 1 µM amounted to 66%. For the same compound, the affinity (KAT6A Ki at 10 μM AcCoA) corresponds to a Ki of 0.127 µM.

Consider `COc1cc(Cn2cccn2)cc2onc(NS(=O)(=O)CC3CCC4(CCC4)O3)c12` (stereo not shown) [Example 121], for which the inhibition at 1 µM amounted to 75%.

Regarding `COc1cc(Cn2cccn2)cc2onc(NS(=O)(=O)CC3CCCC3)c12` [Example 9], the inhibition at 1 µM came out at 91%. Under “KAT6A Ki at 10 μM AcCoA”, the inhibitory constant (Ki) came to 0.0601 µM.

`COc1cc(Cn2cccn2)cc2onc(NS(=O)(=O)CC(OC)C3CCCCC3)c12` (stereo not shown) [Example 46]: the inhibition at 1 µM is 103%.

As to `COc1cc(Cn2cccn2)cc2onc(NS(=O)(=O)CC3CCCC(F)(F)C3)c12` (stereo not shown) [Example 19], the inhibition at 1 µM was found to be 81%. For the setting “KAT6A Ki at 10 μM AcCoA”, this compound displayed an inhibitory constant (Ki) of 0.0653 µM.

On to `COCC1(CS(=O)(=O)Nc2noc3cc(Cn4cccn4)cc(OC)c23)CCC1` [Example 55], for which the inhibition at 1 µM stood at 64%.

With `COc1cc(Cn2cccn2)cc2onc(NS(=O)(=O)CC3(C)CC3(F)F)c12` (stereo not shown) [Example 42], the inhibition at 1 µM amounted to 50%.

For the compound `COCC1(S(=O)(=O)Nc2noc3cc(Cn4cccn4)cc(OC)c23)CC1` [Example 47], the inhibition at 1 µM was 68%.

`COc1cc(Cn2cccn2)cc2onc(NS(=O)(=O)CC3CCCC3(F)F)c12` (stereo not shown) [Example 77] came in with a Ki (KAT6A Ki at 10 μM AcCoA) of 0.0155 µM.

`COc1cc(Cn2cccn2)cc2onc(NS(=O)(=O)C3CCN(C(C)=O)CC3)c12` [Example 94]: the inhibition at 1 µM came out at 76%.

A word on the IC50: it is the concentration that gives 50% inhibition. In the case of `COc1cc(Cn2cccn2)cc2onc(NS(=O)(=O)NC3CCCCC3)c12` [Example 131], under “read-out: KAT6A IC50 at 1 μM AcCoA”, the IC50 worked out at 0.006 µM. In addition, the Ki under setting [1] was found to be 0.003 µM.

In the case of `COc1cc(Cn2cccn2)cc2onc(NS(=O)(=O)CC3CCC(F)(F)CC3)c12` [Example 10], the inhibition at 1 µM stood at 48%. This compound yielded a Ki (KAT6A Ki at 10 μM AcCoA) of 0.0894 µM.

For the compound `COc1cc(Cn2cccn2)cc2onc(NS(=O)(=O)CCC(C)(C)C3CC3)c12` [Example 32], the inhibition at 1 µM came to 108%. The same compound had a Ki (KAT6A Ki at 10 μM AcCoA) of 0.00488 µM.

As for `COc1cc(Cn2cccn2)cc2onc(NS(=O)(=O)CC3CCCO3)c12` (stereo not shown) [Example 5], under “KAT6A IC50 at 1 μM AcCoA”, the midpoint of inhibition, the IC50, lay at 0.323 µM.

On to `COc1cc(Cn2cccn2)cc2onc(NS(=O)(=O)C3CC4(CCC4)C3)c12` [Example 33], for which the inhibition at 1 µM came out at 65%.

Consider `COc1cc(Cn2cccn2)cc2onc(NS(=O)(=O)CC3CC(F)(F)C3)c12` [Example 36], for which the inhibition at 1 µM was 51%.

As to `COc1cc(Cn2cccn2)cc2onc(NS(=O)(=O)CC3CN(S(C)(=O)=O)C3)c12` [Example 85], the inhibition at 1 µM stood at 36%. In addition, for the setting “KAT6A Ki at 10 μM AcCoA”, the affinity, expressed as Ki, was 1.34 µM.

In turn, `COc1cc(Cn2cccn2)cc2onc(NS(=O)(=O)CC3CCCOC3)c12` (stereo not shown) [Example 3] gave a half-inhibitory concentration (IC50) (KAT6A IC50 at 1 μM AcCoA) of 0.301 µM.

With `COc1cc(Cn2cccn2)cc2onc(NS(=O)(=O)CC3(C)CC3)c12` [Example 39], the inhibition at 1 µM turned out to be 52%.

In the case of `COc1cc(Cn2cccn2)cc2onc(NS(=O)(=O)CC3(C)CCCCC3)c12` [Example 22], the inhibition at 1 µM is 60%. Also, the inhibition constant (Ki) (KAT6A Ki at 10 μM AcCoA) was found to be 0.0332 µM.

For the compound `COc1cc(Cn2cccn2)cc2onc(NS(=O)(=O)CC3(C#N)CCCCC3)c12` [Example 40], the inhibition at 1 µM worked out at 58%.

As for `COCC1(S(=O)(=O)Nc2noc3cc(Cn4cccn4)cc(OC)c23)CCC1` [Example 74], the inhibition at 1 µM stood at 92%.

As to `COc1cc(Cn2cccn2)cc2onc(NS(=O)(=O)CC3(C(F)(F)F)CC3)c12` [Example 34], the inhibition at 1 µM turned out to be 46%.

In the case of `COc1cc(Cn2cccn2)cc2onc(NS(=O)(=O)[C@H]3CCCN(C(=O)OCc4ccccc4)C3)c12` [Example 88], the affinity (KAT6A Ki at 10 μM AcCoA), expressed as Ki, was 0.0994 µM.

With `COc1cc(Cn2cccn2)cc2onc(NS(=O)(=O)CC3CCCOC3)c12` (stereo not shown) [Example 4], the concentration for half-maximal inhibition (IC50) (KAT6A IC50 at 1 μM AcCoA) was 0.349 µM.

As for `COc1cc(Cn2cccn2)cc2onc(NS(=O)(=O)C3CCC(C)C3)c12` (stereo not shown) [Example 21], the inhibition at 1 µM amounted to 84%. Moreover, the Ki (KAT6A Ki at 10 μM AcCoA) was determined as 0.0345 µM.

`COc1cc(Cn2cccn2)cc2onc(NS(=O)(=O)CCC3CCOCC3)c12` [Example 117]: the inhibition at 1 µM was 91%.

Take `COc1cc(Cn2cccn2)cc2onc(NS(=O)(=O)C3CC(C)CC(C)C3)c12` (stereo not shown) [Example 62]: the inhibition at 1 µM stood at 97%.

Regarding `COc1cc(Cn2cccn2)cc2onc(NS(=O)(=O)C3CCCOC3)c12` (stereo not shown) [Example 87], the inhibition at 1 µM worked out at 73%. Moreover, the affinity (KAT6A Ki at 10 μM AcCoA), expressed as Ki, was 0.1 µM.

With `CCOC1(CS(=O)(=O)Nc2noc3cc(Cn4cccn4)cc(OC)c23)CCOCC1` [Example 93], the inhibition at 1 µM is 59%.

`COc1cc(Cn2cccn2)cc2onc(NS(=O)(=O)C3CC(CC#N)C3)c12` (stereo not shown) [Example 14]: the inhibition constant (Ki) (KAT6A Ki at 10 μM AcCoA) amounted to 0.16 µM.

`COc1cc(Cn2cccn2)cc2onc(NS(=O)(=O)CCC3CCCO3)c12` (stereo not shown) [Example 102]: the inhibition at 1 µM amounted to 70%. The same compound showed a Ki (KAT6A Ki at 10 μM AcCoA) of 0.116 µM.

`COc1cc(Cn2cccn2)cc2onc(NS(=O)(=O)C3CC3)c12` [Example 13]: the Ki under setting [1] was determined as 0.224 µM.

With `COc1cc(Cn2cccn2)cc2onc(NS(=O)(=O)C3CCC3)c12` [Example 12], the inhibition at 1 µM came to 59%. The Ki under setting [1] turned out to be 0.199 µM.

For the compound `COc1cc(Cn2cccn2)cc2onc(NS(=O)(=O)CC3CCN(C(C)=O)CC3)c12` [Example 92], the inhibition at 1 µM came out at 40%.

On to `COc1cc(Cn2cccn2)cc2onc(NS(=O)(=O)CC34CCCN(CC3)C4)c12` (stereo not shown) [Example 105], for which the inhibition at 1 µM is 101%.

As to `COc1cc(Cn2cccn2)cc2onc(NS(=O)(=O)CC3(OC)CCCC3)c12` [Example 71], the inhibition at 1 µM turned out to be 72%.

For `COc1cc(Cn2cccn2)cc2onc(NS(=O)(=O)CCC3CC4CCC3C4)c12` (stereo not shown) [Example 45], the inhibition at 1 µM is 108%.

As for `COc1cc(Cn2cccn2)cc2onc(NS(=O)(=O)CCCC3CCCCC3)c12` [Example 37], the inhibition at 1 µM came out at 98%.

On to `COc1cc(Cn2cccn2)cc2onc(NS(=O)(=O)CC3CCCCC3(C)C)c12` (stereo not shown) [Example 63], for which the inhibition at 1 µM was 48%.

On to `COc1cc(Cn2cccn2)cc2onc(NS(=O)(=O)CC3(C)CCCC3)c12` [Example 61], for which the inhibition at 1 µM turned out to be 55%.

On to `COc1cc(Cn2cccn2)cc2onc(NS(=O)(=O)CC3CCOCC3)c12` [Example 7, N-{4-methoxy-6-[(1H-pyrazol-1-yl)methyl]-1,2-benzoxazol-3-yl}-1-(oxan-4-yl)methanesulfonamide], for which the inhibition at 1 µM was 51%. Where the note is “KAT6A Ki at 10 μM AcCoA”, this compound registered an inhibitory constant (Ki) of 0.177 µM.

Take `CCOC1(CS(=O)(=O)Nc2noc3cc(Cn4cccn4)cc(OC)c23)CCC1` [Example 11]: the inhibition at 1 µM was 45%. Under “KAT6A Ki at 10 μM AcCoA”, this compound returned a Ki of 0.371 µM.

Take `COc1cc(Cn2cccn2)cc2onc(NS(=O)(=O)C[C@H]3C[C@H](C)C3)c12` [Example 134]: inhibition (KAT6A IC50 at 1 μM AcCoA) was half-maximal at 0.04 µM (IC50).

With `COc1cc(Cn2cccn2)cc2onc(NS(=O)(=O)C3CCCC3C)c12` (stereo not shown) [Example 72], the inhibition at 1 µM was found to be 70%.

Regarding `COc1cc(Cn2cccn2)cc2onc(NS(=O)(=O)CC3CC4(CCC4)C3)c12` [Example 38], the inhibition at 1 µM amounted to 92%.

In the case of `COc1cc(Cn2cccn2)cc2onc(NS(=O)(=O)CC3CC(C)(C)OC3(C)C)c12` (stereo not shown) [Example 86], the inhibition at 1 µM was determined as 77%. Besides, the affinity (KAT6A Ki at 10 μM AcCoA), expressed as Ki, was 0.107 µM.

On to `COc1cc(Cn2cccn2)cc2onc(NS(=O)(=O)CC3C(C)(C)C3(F)F)c12` (stereo not shown) [Example 75], for which the inhibition at 1 µM came out at 91%.
